We go through four compounds from patent publication US20100010092A1, “USE OF MODAFINIL TO TREAT RESTLESS LEG SYNDROME” (Arless Ltd., priority 2006, published 2010).

Data set [1] relates to PLMD and RLS and Primary snoring. Briefly: Case reports: patient with sleep study diagnosed PLMD, RLS and Primary snoring taking the drug orally. Format: in vivo, human. The settings on record: for RLS and PLMD symptoms on chronic use: symptoms returned immediately after stopping. The procedure:
An otherwise healthy non-obese person with sleep study diagnosed PLMD and RLS and Primary snoring without apnea, 61 kg, took Requip, ropinirole HCL from 0.25 to 0.75 mg orally per day for PLMS and RLS for a period of over 8-12 months. PLM were severe enough to occasionally awaken them from sleep. […] Multiple attempts at gaining relief were made over a period of 8-12 months. These attempts failed. […]

The subject of data set [2] is restless leg syndrome and PLMS, and Primary snoring. Nature of the data set: Overnight polysomnographic sleep study, evening dosage. Format: in vivo, human. The settings on record: oral 50 mg in the evening, versus baseline without drug. An excerpt:
A non-obese subject with no outstanding medical history other than restless leg syndrome and PLMS of 6 years duration, and Primary snoring, 60 kg, was entered into an overnight sleep study in a specialist hospital sleep disorder center. […] Snoring as represented by the Snore Index was reduced 70%.

The conditions of data set [3]: doses up to 400 mg per day, given as a single dose; cited from earlier work.
For the next data set, the system named is RLS. The settings on record: moderate to severe RLS; cited from earlier work.
For data set [4] the following is noted: cited from earlier work; for share of trough concentration (Cminss) of circulating modafinil: after once daily dosing of racemic modafinil.
The mark [5] stands for this setting: 50 mg by mouth 1-3 hours prior to bedtime.
The mark [6] stands for this setting: 50 mg by mouth between 8 am and noon.
Where [7] appears, read: 50 mg or 25 mg by mouth in the morning.

Structures can show the parent of a compound that is named as a salt.

Regarding `NC(=O)C[S+]([O-])C(c1ccccc1)c1ccccc1` (racemic) [modafinil, 2-[(diphenylmethyl)sulfiny]acetamide], the symptoms entry in data set [1] (25 mg as needed, evening dosage) is listed as “either completely relieved or greatly diminished”. Besides, the “removal of symptoms at lower dosage” value in data set [1] (25 mg by mouth in the morning) is on record as “failed to entirely remove symptoms”. In data set [1] (setting [5]), the “limb movements and the urge to move the limb and associated sensations while awake” value was “greatly reduced”; the “time until limb movements and urge were greatly reduced” value is given as “approximately 90 minutes”. In data set [1] (setting [6]), the “leg jerks during sleep observed by partner” value is “no leg jerks during sleep were observed”; the “limb movements and snoring while asleep noticed by partner” value is “absence of limb movements and snoring”; the “restfulness noted by patient” value is listed as “increased restfulness”; the “urge to move legs in the evenings” value is “No urge to move legs in the evenings occurred”. Besides, in data set [1] (setting [7]), the “limb movements and the urge to move the limb and associated sensations while awake” value is “greatly reduced”; the “snoring noted by sleep partner” value is on record as “marked decrease in snoring”. Moreover, in data set [1] (100 mg by mouth in the morning), the “leg jerks during sleep observed by partner” value is “no leg jerks during sleep were observed”; the “limb movements and snoring while asleep noticed by partner” value is “absence of limb movements and snoring”; the “restfulness noted by patient” value is on record as “increased restfulness”; the “urge to move legs in the evenings” value is “No urge to move legs in the evenings occurred”. In data set [1] (evening dosage, every day for periods of 5 to 7 days), the “RLS and PLMD symptoms on chronic use” value is “periods free from RLS and PLMD symptoms”. Also, the “RLS and PLMD symptoms on chronic use” value in data set [1] (morning dosage 50 or 25 mg, every day for periods of up to 11 days) is “periods free from RLS and PLMD symptoms”. In data set [2], the PLMs during sleep entry is reported as “not detected” and the “reduction of snoring as represented by the Snore Index” value is 70%. Besides, in data set [3], the tolerability result is recorded as “well tolerated”.
As to `CCCN(CCC)CCc1cccc2c1CC(=O)N2` [Requip, ropinirole HCL], the “PLMS according to the partner” value in data set [1] (ropinirole HCL 0.25 to 0.75 mg orally per day, over 8-12 months) was “PLMS continued”. In addition, in data set [1] (ropinirole HCL 0.25 to 0.75 mg orally per day, over 8-12 months, person), the “relief of RLS/PLMS symptoms” value was “did not relieve symptoms”. In the data set with RLS, the “additional complications reported by patients” value is “constipation and daytime sleepiness”.
For `NC(=O)C[S@@+]([O-])C(c1ccccc1)c1ccccc1` [I-isomer, r-2-((diphenylmethyl)sulfinyl)-acetamide], the “share of trough concentration (Cminss) of circulating modafinil” value in data set [4] was 90%. Moreover, the “total exposure at steady state relative to that for the d-isomer” value in data set [4] (taken orally, steady state) is “approximately three”.
Turning to `NC(=O)C[S+]([O-])C(c1ccccc1)c1ccccc1` (single isomer, unassigned) [d-isomer], the “share of trough concentration (Cminss) of circulating modafinil” value in data set [4] is listed as 10%.
